Assay results from patent US20050130232A1, “Methods of screening for compounds that modulate hormone receptor activity” (Allergan, Inc., priority 2001, published 2005).

Biological target: T1, protein kinase A activity associated with RXRα (Homo sapiens, UniProt P19793)
T1 sequence (P19793 1-462): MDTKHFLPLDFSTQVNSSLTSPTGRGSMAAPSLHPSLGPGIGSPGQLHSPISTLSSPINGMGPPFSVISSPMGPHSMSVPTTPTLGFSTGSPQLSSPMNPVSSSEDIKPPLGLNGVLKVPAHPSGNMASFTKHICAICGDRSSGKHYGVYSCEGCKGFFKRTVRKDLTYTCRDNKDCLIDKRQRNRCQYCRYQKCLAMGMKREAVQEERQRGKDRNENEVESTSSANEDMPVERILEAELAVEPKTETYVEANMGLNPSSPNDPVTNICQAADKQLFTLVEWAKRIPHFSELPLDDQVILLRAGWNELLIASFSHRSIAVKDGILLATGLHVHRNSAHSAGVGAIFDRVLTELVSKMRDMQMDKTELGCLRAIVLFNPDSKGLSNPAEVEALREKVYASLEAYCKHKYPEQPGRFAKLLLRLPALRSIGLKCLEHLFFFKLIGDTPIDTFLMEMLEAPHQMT
Test: Protein kinase A activity in anti-Flag immunoprecipitates of PH-RXRα or RXRα transfected HEK 293 cells, synthetic peptide substrate
Format: cell-based
Settings: Flag-RXRα lacking pleckstrin homology domain, 10^-7 M, substrate LRRASLG, vs control vehicle
Protocol: 293 cells were transfected with PH-RXRα. Sample 1: 0.1% DMSO (10 minutes). […] Sample 3: 0.1% DMSO (30 minutes).
Sample 1: 0.1% DMSO (10 minutes). […] Sample 3: 0.1% DMSO (30 minutes). […] Sample 5: No immunoprecipitate.
Sample 1: 0.1% DMSO. […] Sample 3: 0.1% DMSO with PKA inhibitor. […] Sample 5: 0.1% DMSO.
Following immunoprecipitation with anti-Flag antibody, the synthetic PKA substrate, LRRASLG (SEQ ID NO: 59), was added to the immunoprecipitate along with γ-ATP.
HEK 293 were cultured and transfected essentially as described above. Immunoprecipitates were prepared using the anti-Flag antibody, M2, as described above. Assays for protein kinase A activity were performed as follows. Immunoprecipitated complexes were resuspended in 40 μl of Kinase Assay Buffer (30 mM Tris-HCl, pH 7.4 and 10 mM MgCl2). Kinase reactions were initiated by addition of 10 μl of 500 μM synthetic peptide LRRASLG (SEQ ID NO: 59) or […] (SEQ ID NO: 60) prepared by Upstate Biotechnology (Lake Placid, N.Y.) and addition of 50 μM [γ-^32P]ATP (10 μCi) to the immune-complexes. […]
Incorporated ^32P was separated from free label by applying the reaction mixture onto P81 phosphocellulose paper and subsequently washing the paper three times with 0.75% phosphoric acid and once with acetone. Protein kinase reaction samples were analyzed in a scintillation counter to determine the amount of ^32P-incorporation.

With CC(/C=C/[C@@H]1C[C@]1(C)c1ccc2c(c1)C(C)(C)CCC2(C)C)=C\C(=O)O [AGN194204] the “protein kinase A activity associated with RXRα” value was “significantly enhanced”.
